Results reported in PubChem BioAssay AID2060888 (Molecular Pharmacology Branch, DTP, NCI, 2025).

System: 695427-040-R-J1-PDC complex spheroid viability
Assay: Anticancer human tumor 695427-040-R-J1-PDC patient-derived colon adenocarcinoma cell line growth inhibition [RAS]
Details: for IC50: curve of first compound; for viability, T/C: stronger effect = lower value
Summary of the method: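 Multi-cell-type spheroids: tumor cells plus HUVEC endothelial cells and mesenchymal stem cells. RAS-pathway inhibitors were combined with targeted agents, each dosed in half-log steps down from clinical Cmax, or from 10 microM when Cmax was unknown.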
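Further: viability read after seven days of drug exposure.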
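Wherever viability, T/C is given: 100% = DMSO vehicle control viability.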

With CC1(O)CCCC1n1c(=O)c(C(F)F)cc2cnc(NC3CCN(S(C)(=O)=O)CC3)nc21 (configuration not stated) + C=CC(=O)N1CCN(c2nc(OCC3CCCN3C)nc3c(F)c(-c4nc(N)cc(C)c4C(F)(F)F)c(Cl)cc23)C(C)C1 the IC50 (second compound 0.00316 µM) was > 10 µM, the IC50 (second compound 0.01 µM) was > 10 µM and the IC50 (second compound 0.0316 µM) was > 10 µM. For the same molecule, the IC50 (second compound 0.1 µM) was > 10 µM, the IC50 (second compound 0.316 µM) was > 10 µM and the IC50 (second compound 1 µM) was 8.82 µM. The viability, T/C (second compound 0.00316 µM, first compound 0.0316 µM) was 95.4%, the viability, T/C (second compound 0.00316 µM, first compound 0.1 µM) was 93.5% and the viability, T/C (second compound 0.00316 µM, first compound 0.316 µM) was 101%. It also gave a viability, T/C (second compound 0.00316 µM, first compound 1 µM) of 111%, a viability, T/C (second compound 0.00316 µM, first compound 3.16 µM) of 116% and a viability, T/C (second compound 0.00316 µM, first compound 10 µM) of 59.6%. The viability, T/C (second compound 0.01 µM, first compound 0.0316 µM) was 109%, the viability, T/C (second compound 0.01 µM, first compound 0.1 µM) was 91.8% and the viability, T/C (second compound 0.01 µM, first compound 0.316 µM) was 104%. The viability, T/C (second compound 0.01 µM, first compound 1 µM) was 109%, the viability, T/C (second compound 0.01 µM, first compound 3.16 µM) was 124% and the viability, T/C (second compound 0.01 µM, first compound 10 µM) was 58.1%. For the same molecule, the viability, T/C (second compound 0.0316 µM, first compound 0.0316 µM) was 99.5%, the viability, T/C (second compound 0.0316 µM, first compound 0.1 µM) was 96% and the viability, T/C (second compound 0.0316 µM, first compound 0.316 µM) was 107%. The viability, T/C (second compound 0.0316 µM, first compound 1 µM) was 110%, the viability, T/C (second compound 0.0316 µM, first compound 3.16 µM) was 122% and the viability, T/C (second compound 0.0316 µM, first compound 10 µM) was 57.6%. The viability, T/C (second compound 0.1 µM, first compound 0.0316 µM) was 94.4%, the viability, T/C (second compound 0.1 µM, first compound 0.1 µM) was 95.3% and the viability, T/C (second compound 0.1 µM, first compound 0.316 µM) was 107%. The viability, T/C (second compound 0.1 µM, first compound 1 µM) was 112%, the viability, T/C (second compound 0.1 µM, first compound 3.16 µM) was 126% and the viability, T/C (second compound 0.1 µM, first compound 10 µM) was 56.4%. For the same molecule, the viability, T/C (second compound 0.316 µM, first compound 0.0316 µM) was 99.6%, the viability, T/C (second compound 0.316 µM, first compound 0.1 µM) was 102% and the viability, T/C (second compound 0.316 µM, first compound 0.316 µM) was 97.5%. For the same molecule, the viability, T/C (second compound 0.316 µM, first compound 1 µM) was 120%, the viability, T/C (second compound 0.316 µM, first compound 3.16 µM) was 124% and the viability, T/C (second compound 0.316 µM, first compound 10 µM) was 60.3%. It also gave a viability, T/C (second compound 1 µM, first compound 0.0316 µM) of 97.5%, a viability, T/C (second compound 1 µM, first compound 0.1 µM) of 94.5% and a viability, T/C (second compound 1 µM, first compound 0.316 µM) of 101%. The viability, T/C (second compound 1 µM, first compound 1 µM) was 118%, the viability, T/C (second compound 1 µM, first compound 3.16 µM) was 120% and the viability, T/C (second compound 1 µM, first compound 10 µM) was 43.1%.
